Reference: ChEMBL document CHEMBL3797164, “Transfer of SAR information from hypotensive indazole to indole derivatives acting at α-adrenergic receptors: In vitro and in vivo studies” (Eur J Med Chem, 2016)

Key:
[1] = biological target: T1, Adrenergic receptor alpha-1 (Rattus norvegicus, UniProt P15823+P23944+P43140); test: Displacement of [3H]prazosine from Alpha-1 adrenergic receptor in Sprague-Dawley rat brain P2 membranes after […] by liquid scintillation counting
T1 sequence (P15823 whole entry): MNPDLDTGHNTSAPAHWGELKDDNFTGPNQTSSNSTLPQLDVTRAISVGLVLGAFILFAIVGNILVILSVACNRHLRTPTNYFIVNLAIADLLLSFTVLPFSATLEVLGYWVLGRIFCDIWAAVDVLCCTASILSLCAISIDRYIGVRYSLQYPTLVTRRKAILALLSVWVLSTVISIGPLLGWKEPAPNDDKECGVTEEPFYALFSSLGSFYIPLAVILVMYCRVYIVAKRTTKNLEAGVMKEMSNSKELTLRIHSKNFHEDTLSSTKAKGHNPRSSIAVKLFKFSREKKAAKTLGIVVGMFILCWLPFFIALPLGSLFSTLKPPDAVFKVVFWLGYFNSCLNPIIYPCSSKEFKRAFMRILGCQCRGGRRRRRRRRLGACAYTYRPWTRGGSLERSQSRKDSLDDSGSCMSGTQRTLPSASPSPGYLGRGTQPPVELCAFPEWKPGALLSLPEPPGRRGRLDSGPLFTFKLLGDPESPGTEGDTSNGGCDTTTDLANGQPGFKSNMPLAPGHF
T1 sequence (P23944 whole entry): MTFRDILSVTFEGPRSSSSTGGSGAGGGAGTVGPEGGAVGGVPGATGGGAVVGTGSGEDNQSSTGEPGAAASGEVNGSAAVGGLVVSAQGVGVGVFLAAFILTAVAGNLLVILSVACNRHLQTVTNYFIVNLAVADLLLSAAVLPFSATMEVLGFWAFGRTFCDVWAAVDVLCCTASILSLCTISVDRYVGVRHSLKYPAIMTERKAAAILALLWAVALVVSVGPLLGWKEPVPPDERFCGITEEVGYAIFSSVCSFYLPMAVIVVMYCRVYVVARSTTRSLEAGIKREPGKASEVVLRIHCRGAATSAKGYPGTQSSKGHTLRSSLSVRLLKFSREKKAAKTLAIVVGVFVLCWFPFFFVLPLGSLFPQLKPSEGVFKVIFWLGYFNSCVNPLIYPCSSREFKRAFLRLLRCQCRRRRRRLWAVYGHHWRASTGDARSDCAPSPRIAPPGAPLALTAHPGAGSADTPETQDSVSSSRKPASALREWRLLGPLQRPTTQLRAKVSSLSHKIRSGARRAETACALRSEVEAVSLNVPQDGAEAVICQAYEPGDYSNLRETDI
T1 sequence (P43140 whole entry): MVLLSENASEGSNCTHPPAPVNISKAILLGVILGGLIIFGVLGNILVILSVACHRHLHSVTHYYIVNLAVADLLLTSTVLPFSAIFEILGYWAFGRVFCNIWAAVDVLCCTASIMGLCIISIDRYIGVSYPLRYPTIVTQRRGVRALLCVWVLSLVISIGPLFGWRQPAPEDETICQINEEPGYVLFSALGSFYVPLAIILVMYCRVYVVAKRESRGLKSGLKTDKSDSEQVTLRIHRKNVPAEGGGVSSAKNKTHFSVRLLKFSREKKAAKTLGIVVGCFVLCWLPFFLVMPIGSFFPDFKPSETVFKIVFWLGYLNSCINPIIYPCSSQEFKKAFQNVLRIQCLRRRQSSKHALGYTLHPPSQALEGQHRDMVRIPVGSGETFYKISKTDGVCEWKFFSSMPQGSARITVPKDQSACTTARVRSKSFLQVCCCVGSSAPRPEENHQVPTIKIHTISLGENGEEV

Nischarin = Nischarin (Rattus norvegicus, UniProt Q4G017); test: Displacement of [3H]clonidine from Imidazoline receptor 1 in Sprague-Dawley rat kidney P2 membranes after […] by liquid scintillation counting
Sequence of Nischarin (Q4G017 whole entry): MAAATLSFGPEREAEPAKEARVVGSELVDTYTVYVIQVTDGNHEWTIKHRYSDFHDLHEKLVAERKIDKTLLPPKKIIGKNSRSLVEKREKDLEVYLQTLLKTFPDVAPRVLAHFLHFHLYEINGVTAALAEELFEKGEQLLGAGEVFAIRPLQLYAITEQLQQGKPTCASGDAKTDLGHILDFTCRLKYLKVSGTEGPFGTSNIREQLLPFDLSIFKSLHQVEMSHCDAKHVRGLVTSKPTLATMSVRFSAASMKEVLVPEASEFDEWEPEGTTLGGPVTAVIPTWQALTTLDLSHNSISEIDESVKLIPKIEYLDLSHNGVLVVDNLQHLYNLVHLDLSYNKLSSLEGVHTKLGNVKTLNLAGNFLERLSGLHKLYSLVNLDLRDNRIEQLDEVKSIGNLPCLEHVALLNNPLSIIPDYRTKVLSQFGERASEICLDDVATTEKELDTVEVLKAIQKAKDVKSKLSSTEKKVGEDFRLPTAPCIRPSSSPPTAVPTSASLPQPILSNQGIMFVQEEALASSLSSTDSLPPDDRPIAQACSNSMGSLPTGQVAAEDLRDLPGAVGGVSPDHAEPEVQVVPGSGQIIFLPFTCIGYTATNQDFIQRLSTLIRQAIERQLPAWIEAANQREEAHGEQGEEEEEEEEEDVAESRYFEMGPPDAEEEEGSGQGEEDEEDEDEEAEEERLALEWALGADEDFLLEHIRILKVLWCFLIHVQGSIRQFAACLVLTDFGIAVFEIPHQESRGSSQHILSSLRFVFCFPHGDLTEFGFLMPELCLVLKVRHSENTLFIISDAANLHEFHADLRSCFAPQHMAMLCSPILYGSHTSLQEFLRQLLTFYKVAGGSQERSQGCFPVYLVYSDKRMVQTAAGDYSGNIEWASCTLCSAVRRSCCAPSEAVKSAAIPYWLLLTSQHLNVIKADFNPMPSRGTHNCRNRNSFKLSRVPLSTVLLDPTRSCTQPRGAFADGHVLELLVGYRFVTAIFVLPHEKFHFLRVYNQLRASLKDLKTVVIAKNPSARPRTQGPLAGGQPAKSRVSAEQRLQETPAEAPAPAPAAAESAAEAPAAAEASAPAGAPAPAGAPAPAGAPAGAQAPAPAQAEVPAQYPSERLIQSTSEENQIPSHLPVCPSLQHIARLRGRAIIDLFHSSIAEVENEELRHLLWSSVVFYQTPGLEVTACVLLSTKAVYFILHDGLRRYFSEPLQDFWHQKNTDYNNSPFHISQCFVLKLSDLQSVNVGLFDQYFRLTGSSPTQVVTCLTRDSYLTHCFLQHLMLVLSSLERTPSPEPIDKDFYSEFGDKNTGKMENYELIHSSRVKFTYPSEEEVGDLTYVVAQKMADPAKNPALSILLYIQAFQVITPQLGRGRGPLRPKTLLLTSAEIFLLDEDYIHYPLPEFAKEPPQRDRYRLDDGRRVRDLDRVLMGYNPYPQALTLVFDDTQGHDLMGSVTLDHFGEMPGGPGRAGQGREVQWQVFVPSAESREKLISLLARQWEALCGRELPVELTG

[2] = Displacement of [3H]2BFI from Imidazoline receptor 2 in Sprague-Dawley rat brain P2 membrans after […] by liquid scintillation counting
[3] = biological target: T2, Adrenergic receptor alpha-2 (Rattus norvegicus, UniProt P22086+P19328+P22909); test: Displacement of [3H]RX821002 from Alpha-2 adrenergic receptor in Sprague-Dawley rat brain P2 membranes after […] by liquid scintillation counting
T2 sequence (P22086 whole entry): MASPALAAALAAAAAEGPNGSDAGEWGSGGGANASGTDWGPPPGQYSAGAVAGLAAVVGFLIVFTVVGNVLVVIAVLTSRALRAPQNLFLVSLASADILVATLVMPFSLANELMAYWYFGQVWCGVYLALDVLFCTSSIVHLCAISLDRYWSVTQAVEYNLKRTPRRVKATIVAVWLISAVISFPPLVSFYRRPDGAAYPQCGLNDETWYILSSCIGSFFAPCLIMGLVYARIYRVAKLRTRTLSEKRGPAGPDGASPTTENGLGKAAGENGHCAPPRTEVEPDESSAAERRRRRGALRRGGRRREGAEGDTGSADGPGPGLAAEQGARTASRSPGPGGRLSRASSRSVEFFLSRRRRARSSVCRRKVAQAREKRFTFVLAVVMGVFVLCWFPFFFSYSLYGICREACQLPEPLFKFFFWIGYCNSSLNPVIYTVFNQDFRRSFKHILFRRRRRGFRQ
T2 sequence (P19328 whole entry): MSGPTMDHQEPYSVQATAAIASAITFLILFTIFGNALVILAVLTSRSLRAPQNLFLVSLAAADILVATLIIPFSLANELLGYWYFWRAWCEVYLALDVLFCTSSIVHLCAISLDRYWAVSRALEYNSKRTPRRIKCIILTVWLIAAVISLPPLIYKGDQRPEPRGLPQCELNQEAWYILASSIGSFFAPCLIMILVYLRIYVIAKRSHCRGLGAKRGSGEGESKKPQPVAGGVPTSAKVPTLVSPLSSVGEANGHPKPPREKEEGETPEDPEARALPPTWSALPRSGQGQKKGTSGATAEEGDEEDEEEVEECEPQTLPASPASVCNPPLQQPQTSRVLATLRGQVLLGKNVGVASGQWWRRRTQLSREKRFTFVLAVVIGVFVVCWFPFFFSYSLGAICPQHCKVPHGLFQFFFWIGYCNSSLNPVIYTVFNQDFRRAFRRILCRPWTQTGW
T2 sequence (P22909 whole entry): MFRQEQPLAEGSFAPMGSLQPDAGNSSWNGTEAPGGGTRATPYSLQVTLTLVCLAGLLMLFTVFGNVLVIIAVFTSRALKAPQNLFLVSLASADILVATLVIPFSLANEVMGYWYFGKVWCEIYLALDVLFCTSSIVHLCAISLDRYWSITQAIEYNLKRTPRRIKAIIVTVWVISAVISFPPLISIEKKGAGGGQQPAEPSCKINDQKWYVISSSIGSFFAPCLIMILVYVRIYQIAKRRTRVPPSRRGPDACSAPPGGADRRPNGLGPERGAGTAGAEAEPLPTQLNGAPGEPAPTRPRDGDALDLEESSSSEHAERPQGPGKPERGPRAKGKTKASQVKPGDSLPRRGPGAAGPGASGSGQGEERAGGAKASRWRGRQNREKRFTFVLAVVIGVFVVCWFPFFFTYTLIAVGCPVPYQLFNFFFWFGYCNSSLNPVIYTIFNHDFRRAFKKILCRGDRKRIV

Row | SMILES | Ki [1] | Ki (Nischarin) | Ki [2] | Ki [3]
1 | Cl.Fc1ccc2c(ccn2CC2=NCCN2)c1 | 306.7 nM | 32.1 nM | 66.3 nM | 68.43 nM
2 | Cl.Fc1ccc2ccn(CC3=NCCN3)c2c1 | 87.83 nM | 789 nM | 240 nM | 15.9 nM
3 | Br.c1ccc(COc2cccc3ccn(CC4=NCCN4)c23)cc1 | 381.8 nM | 36300 nM | 10400 nM | 5241 nM
4 | Brc1ccc2c(ccn2CC2=NCCN2)c1.Cl | 1348 nM | 10500 nM | 30.3 nM | 596.7 nM
5 | Cl.Fc1cccc2c1ccn2CC1=NCCN1 | 27.56 nM | 14600 nM | 249 nM | 46.97 nM
6 | Cl.Clc1ccc2ccn(CC3=NCCN3)c2c1 | 228.7 nM | 5580 nM | 48.5 nM | 94.5 nM
7 | Cl.Fc1cccc2ccn(CC3=NCCN3)c12 | 36.7 nM | 9630 nM | 32.1 nM | 16.57 nM
8 | Brc1cccc2ccn(CC3=NCCN3)c12.Cl | 7.91 nM | 79.2 nM | 254 nM | 18.3 nM
9 | Brc1cccc2c1ccn2CC1=NCCN1.Cl | 257.7 nM | 468 nM | 179 nM | 84.4 nM
10 | CCc1cccc2ccn(CC3=NCCN3)c12.Cl | 439.4 nM | 45800 nM | 880 nM | 71.7 nM
11 | Br.COc1cccc2ccn(CC3=NCCN3)c12 | 394.2 nM | 588000 nM | 2470 nM | 280 nM
